Test results taken from ChEMBL document CHEMBL3044985, “Novel antitubercular diallyl/dibenzylthiosemicarbazones endowed with high activity toward multi-drug-resistant tuberculosis” (Med Chem Res, 2012).
Converted amounts (≈) assume the structure as drawn.

Assays:
[1] = Cytotoxicity against Chlorocebus aethiops (African green monkey) Vero cells assessed as cell viability after 72 hr by MTT assay; format: cell-based; conditions: chlorocebus sabaeus
[2] = test system: Mycobacterium tuberculosis; assay: Antitubercular activity against Mycobacterium tuberculosis H37Rv by NCCLS agar dilution method; format: functional
[3] = test system: Mycobacterium tuberculosis; assay: Ratio of ofloxacin MIC to compound MIC for Mycobacterium tuberculosis H37Rv; format: functional
[4] = Selectivity index, ratio of CC50 for african green monkey Vero cells to MIC for Mycobacterium tuberculosis H37Rv; format: toxicity, cell-based; conditions: read-out: Selectivity Index
[5] = test system: Mycobacterium tuberculosis; assay: Ratio of isoniazid MIC to compound MIC for Mycobacterium tuberculosis H37Rv; format: functional
[6] = test system: Mycobacterium tuberculosis; assay: Ratio of ethambutol MIC to compound MIC for Mycobacterium tuberculosis H37Rv; format: functional

| SMILES | CC50 at 72 h [1] | MIC [2] | other results |
| --- | --- | --- | --- |
| CC1COc2c(N3CCN(C)CC3)c(F)cc3c(=O)c(C(=O)O)cn1c23 (configuration not stated) [OFLOXACIN] | > 155 µM | 2.13 µM (≈ 0.77 µg/mL) |  |
| C=CCN(CC=C)C(=S)N/N=C(/C)c1ccc(N)cc1 |  | 43.3 µM (≈ 12.5 µg/mL) |  |
| O=[N+]([O-])c1ccc(/C=N\NC(=S)N(Cc2ccccc2)Cc2ccccc2)cc1 | < 155 µM | 0.98 µM (≈ 0.396 µg/mL) |  |
| C=CCN(CC=C)C(=S)N/N=C\c1ccc(Cl)cc1 | 213 µM | 5.3 µM (≈ 1.56 µg/mL) |  |
| C=CCN(CC=C)C(=S)N/N=C(/C)c1ccc(O)cc1 | 216 µM | 21.6 µM (≈ 6.25 µg/mL) |  |
| O=[N+]([O-])c1ccc(/C=N\NC(=S)N(Cc2ccccc2)Cc2ccccc2)o1 | 158 µM | 0.5 µM (≈ 0.197 µg/mL) | Ratio [3]: 4.2; selectivity ratio [4]: > 316; Ratio [5]: 1.3; Ratio [6]: 9.4 |
| C=CCN(CC=C)C(=S)N/N=C(/C)CC |  | 111 µM (≈ 25 µg/mL) |  |
| C/C(=N/NC(=S)N(Cc1ccccc1)Cc1ccccc1)c1ccc(F)cc1 | 160 µM | 7.99 µM (≈ 3.13 µg/mL) |  |
| NNC(=O)c1ccncc1 [ISONIAZID] | > 456 µM | 0.66 µM (≈ 0.0905 µg/mL) |  |
| C=CCN(CC=C)C(=S)N/N=C(/C)c1ccccc1O | 216 µM | 21.6 µM (≈ 6.25 µg/mL) |  |
| CC[C@@H](CO)NCCN[C@@H](CC)CO [ETHAMBUTOL] | > 188 µM | 4.71 µM (≈ 0.962 µg/mL) |  |
| C/C(=N/NC(=S)N(Cc1ccccc1)Cc1ccccc1)c1ccc(N)cc1 | 161 µM | 16.1 µM (≈ 6.25 µg/mL) |  |
| C=CCN(CC=C)C(=S)N/N=C\c1ccccc1C | > 229 µM | 22.9 µM (≈ 6.25 µg/mL) |  |
| S=C(N/N=C\c1ccc(Cl)cc1)N(Cc1ccccc1)Cc1ccccc1 | 159 µM | 1.98 µM (≈ 0.78 µg/mL) |  |
| CO[C@H]1/C=C/O[C@@]2(C)Oc3c(C)c(O)c4c(O)c(c(/C=N/N5CCN(C)CC5)c(O)c4c3C2=O)NC(=O)/C(C)=C\C=C\[C@H](C)[C@H](O)[C@@H](C)[C@@H](O)[C@@H](C)[C@H](OC(C)=O)[C@@H]1C [RIFAMPIN] | > 75.9 µM | 0.23 µM (≈ 0.189 µg/mL) |  |
| S=C(NN=C(c1ccccc1)c1ccccc1)N(Cc1ccccc1)Cc1ccccc1 | 143 µM | 3.58 µM (≈ 1.56 µg/mL) |  |
| CC/C(C)=N\NC(=S)N(Cc1ccccc1)Cc1ccccc1 |  | 76.8 µM (≈ 25 µg/mL) |  |

| SMILES | CC50 at 72 h [1] | MIC [2] | other results |
| --- | --- | --- | --- |
| C=CCN(CC=C)C(=S)N/N=C\c1ccc([N+](=O)[O-])cc1 | < 205 µM | 2.56 µM (≈ 0.779 µg/mL) |  |
| C=CCN(CC=C)C(=S)N/N=C\c1ccccc1 |  | 48.2 µM (≈ 12.5 µg/mL) |  |
| S=C(N/N=C\c1ccccc1)N(Cc1ccccc1)Cc1ccccc1 | 174 µM | 17.4 µM (≈ 6.26 µg/mL) |  |
| C/C(=N/NC(=S)N(Cc1ccccc1)Cc1ccccc1)c1ccccc1O | 160 µM | 8.03 µM (≈ 3.13 µg/mL) |  |
| C/C(=N/NC(=S)N(Cc1ccccc1)Cc1ccccc1)c1ccccc1 | 167 µM | 16.7 µM (≈ 6.25 µg/mL) |  |
| C=CCN(CC=C)C(=S)N/N=C\c1ccccc1O |  | 45.4 µM (≈ 12.5 µg/mL) |  |
| C=CCN(CC=C)C(=S)N/N=C\c1ccccc1[N+](=O)[O-] | 205 µM | 5.12 µM (≈ 1.56 µg/mL) |  |
| Oc1ccccc1/C=N\NC(=S)N(Cc1ccccc1)Cc1ccccc1 | 166 µM | 8.33 µM (≈ 3.13 µg/mL) |  |
| C=CCN(CC=C)C(=S)N/N=C\c1ccc([N+](=O)[O-])o1 | < 212 µM | 2.65 µM (≈ 0.78 µg/mL) |  |
| Cc1ccccc1/C=N\NC(=S)N(Cc1ccccc1)Cc1ccccc1 | 167 µM | 8.38 µM (≈ 3.13 µg/mL) |  |
| C=CCN(CC=C)C(=S)NN=C(c1ccccc1)c1ccccc1 | 186 µM | 9.33 µM (≈ 3.13 µg/mL) |  |
| C=CCN(CC=C)C(=S)N/N=C(/C)c1ccc([N+](=O)[O-])cc1 | < 196 µM | 9.83 µM (≈ 3.13 µg/mL) |  |
| C/C(=N/NC(=S)N(Cc1ccccc1)Cc1ccccc1)c1ccc(O)cc1 | 160 µM | 16.1 µM (≈ 6.26 µg/mL) |  |
| C=CCN(CC=C)C(=S)N/N=C(/C)c1ccccc1 | 229 µM | 22.9 µM (≈ 6.25 µg/mL) |  |
| C/C(=N/NC(=S)N(Cc1ccccc1)Cc1ccccc1)c1ccc([N+](=O)[O-])cc1 | < 149 µM | 3.72 µM (≈ 1.56 µg/mL) |  |
| C=CCN(CC=C)C(=S)N/N=C(/C)c1ccc(F)cc1 | 214 µM | 10.7 µM (≈ 3.13 µg/mL) |  |
| O=[N+]([O-])c1ccccc1/C=N\NC(=S)N(Cc1ccccc1)Cc1ccccc1 | < 155 µM | 3.85 µM (≈ 1.56 µg/mL) |  |
